ChEMBL document CHEMBL1131689, “Synthesis and evaluation of geldanamycin-estradiol hybrids” (Bioorg Med Chem Lett, 1999)

Assays:
Format in all cases: functional, cell-based
[1] = Inhibition of steady-state expression of HER2 in MCF-7 breast cancer cells; settings: Homo sapiens, MCF7
Heat shock protein HSP90 = Heat shock protein HSP90 (Homo sapiens, UniProt P07900+P08238); test: Inhibition of steady-state expression of Raf-1 in MCF-7 breast cancer cells; settings: mcf7
[2] = Inhibition of steady-state expression of ER in MCF-7 breast cancer cells; settings: Homo sapiens, MCF7

SMILES | IC50 [1] | IC50 (Heat shock protein HSP90) | IC50 [2]
CO[C@@H]1/C=C\C=C(/C)C(=O)NC2=CC(=O)C(NCC#CC[C@@H]3C[C@H]4[C@@H]5CCc6cc(O)ccc6[C@H]5CC[C@]4(C)[C@H]3O)=C(C[C@H](C)C[C@@H](OC)[C@@H](O)[C@H](C)/C=C(\C)[C@H]1OC(N)=O)C2=O | 100 nM | 1500 nM | 220 nM
CO[C@@H]1/C=C\C=C(/C)C(=O)NC2=CC(=O)C(NCCCC[C@@H]3C[C@H]4[C@@H]5CCc6cc(O)ccc6[C@H]5CC[C@]4(C)[C@H]3O)=C(C[C@H](C)C[C@@H](OC)[C@@H](O)[C@H](C)/C=C(\C)[C@H]1OC(N)=O)C2=O | > 2000 nM | > 2000 nM | > 2000 nM
CO[C@@H]1/C=C\C=C(/C)C(=O)NC2=CC(=O)C(NCCC[C@@H]3C[C@H]4[C@@H]5CCc6cc(O)ccc6[C@H]5CC[C@]4(C)[C@H]3O)=C(C[C@H](C)C[C@@H](OC)[C@@H](O)[C@H](C)/C=C(\C)[C@H]1OC(N)=O)C2=O | > 2000 nM | > 2000 nM | > 2000 nM
CO[C@@H]1/C=C\C=C(/C)C(=O)NC2=CC(=O)C(NC/C=C/C[C@@H]3C[C@H]4[C@@H]5CCc6cc(O)ccc6[C@H]5CC[C@]4(C)[C@H]3O)=C(C[C@H](C)C[C@@H](OC)[C@@H](O)[C@H](C)/C=C(\C)[C@H]1OC(N)=O)C2=O | 100 nM | 1500 nM | 80 nM
